Laboratory results: patent US20140066439A1, “OSTEOCLAST ACTIVITY” (Katholieke Universiteit Leuen, K.U.Leuven R&D, priority 2010, published 2014)
Entries after “also recorded” stand apart in the source; their conditions may differ.

Assays:
Format in all cases: cell-based, human
[1] = test system: PBMCs from critically ill patients; test: Osteoclast formation (TRAP staining, day 14) in PBMCs from critically ill patients cultured in critically ill patient serum; conditions: low doses, compounds added d1-d14, TRAP staining at day 14
Excerpt: We have determined that the treatment of patient's peripheral blood mononuclear cell (PBMCs), in particular, PBMCs of critically ill patients with autophagy inducers can be used to suppress enhanced osteoclastogenesis. It turned out that a particular advantage is that such autophagy inducers can be targeted to particularly treat the PBMCs.

[2] = test system: p62 protein; test: Autophagy marker p62 protein expression (western blot) in PBMCs/osteoclasts; conditions: healthy PBMCs, RANKL/MCSF stimulated, spermidine 2×10^-8 M, 14 days
Excerpt: We also measured markers of autophagy in the cell lysates from these experiments. The concentration of proteins we obtained were quite low, and there was insufficient protein to measure anything by western blotting in the “sick spermidine” group. […] There was no effect of spermidine on the healthy PBMCs (FIG. 6).
FIG. 6 concerns autophagy marker p62 protein expression in healthy and sick PBMCs/osteoclasts (RANKL/MCSF stimulated) and the effect of spermidine on healthy PBMCs/osteoclasts. Healthy and sick PBMCs were cultured for 14 days with or without spermidine (2×10^−8 M) in 6 well plates (5×10^6 cells/well). After 14 days, protein was extracted using the Ambion PARIS extraction kit (Applied Biosystems), and proteins quantified using the BC Protein Assay (Thermo Fischer Scientific). (A) 5 ug of protein was subjected to 15% Bis-tris gelelectrophoresis, transferred to nitrocellulose membrane and incubated at 4° C. overnight in Anti-p62 (Novus Biologicals; 1:1000). p62 protein was detected by ECL following incubation with AntiMouseIgG (DAKO; 1:1000). GAPDH was used as a loading control. (B) p62 relative expression was quantified with Image QuantTL (Amersham Biosciences) and normalized to GAPDH (n=3; ***p≦0.05 vs. Healthy).

[3] = test system: Peripheral Blood Mononuclear Cells (PBMCs); test: Osteoclast resorption of a hydroxyapatite layer (Von Kossa, ImageJ) by PBMC-derived osteoclasts; conditions: 14 days; for osteoclast activity (resorption): healthy PBMCs stimulated with RANKL and M-CSF, dose response, 10^-6, 10^-7 and 10^-8 M
Experimental: PBMCs were isolated from the whole blood of patients or healthy volunteers by means of Ficoll-Paque Plus (GE Healthcare, Brussels, Belgium) density gradient centrifugation according to the manufacturer's instructions. Heparinized whole blood (20 ml) was drawn from each individual and diluted 1:1 with alpha minimal essential medium (α-MEM; Lonza, Braine-l'Alleud, Belgium), before being layered over Ficoll-Paque and centrifuged at 450 g for 40 min. The mononuclear cell interface was then removed and washed 3 times with α-MEM. Cells were stored in liquid nitrogen until use and seeded at a density of 5×10^5 cells per well. All cultures were performed in quadruplicate in 16-well culture slides (VWR, Leuven, Belgium) or 16-well BD Biocoat Osteologic Slides (BD Biosciences), and cells were cultured in α-MEM supplemented with 10% FBS, 100 IU/ml penicillin and 100 μg/ml streptomycin (“complete medium”), or complete medium plus M-CSF (25 ng/ml) and RANKL (30 ng/ml). […]
(§1) After 14 days, PBMCs were fixed and stained for the osteoclast-specific marker tartrate-resistant acid phosphate (TRAP), and the nuclear marker DAPI, as previously described. The formation of TRAP positive multi-nucleated (more than three nuclei) cells was quantified by counting the multi-nuclear stained cells in each well (D'Amelio P, Grimaldi A, Pescarmona G P, Tamone C, Roato I, Isaia G. Spontaneous osteoclast formation from peripheral blood mononuclear cells in postmenopausal osteoporosis. FASEB J. 2005; 19(3):410-2.). Filamentous (F)-actin rings representing active osteoclasts were visualized after staining of the actin cytoskeleton with the toxin phalloidin conjugated to FITC, and quantified by counting, as described above. […] Lacunar resorption was determined by measuring the total area unstained by Von-Kossa (total area resorbed) using ImageJ software (National Institute of Health, MD, USA), and was expressed as the total percentage of the surface reabsorbed. […]

[4] = test system: Peripheral Blood Mononuclear Cells (PBMCs); test: Osteoclast formation: TRAP positive multinuclear cells in PBMC cultures; conditions: for TRAP positive multinuclear cells (osteoclast formation): spermidine 10^-8 M; for spontaneous osteoclast formation: 14 days
Experimental: PBMCs were isolated from the whole blood of patients or healthy volunteers by means of Ficoll-Paque Plus (GE Healthcare, Brussels, Belgium) density gradient centrifugation according to the manufacturer's instructions. Heparinized whole blood (20 ml) was drawn from each individual and diluted 1:1 with alpha minimal essential medium (α-MEM; Lonza, Braine-l'Alleud, Belgium), before being layered over Ficoll-Paque and centrifuged at 450 g for 40 min. The mononuclear cell interface was then removed and washed 3 times with α-MEM. Cells were stored in liquid nitrogen until use and seeded at a density of 5×10^5 cells per well. All cultures were performed in quadruplicate in 16-well culture slides (VWR, Leuven, Belgium) or 16-well BD Biocoat Osteologic Slides (BD Biosciences), and cells were cultured in α-MEM supplemented with 10% FBS, 100 IU/ml penicillin and 100 μg/ml streptomycin (“complete medium”), or complete medium plus M-CSF (25 ng/ml) and RANKL (30 ng/ml). In order to study the effect of circulating factors on osteoclast formation, PBMCs were also grown in α-MEM containing 10% human healthy volunteer serum (HS) or 10% patient serum (PS), in the presence or absence of M-CSF (25 ng/ml) and RANKL (30 ng/ml). For cytokine neutralization experiments, PBMCs were grown in α-MEM/10% PS for 14 days, in the presence of varying concentrations of anti-TNF-α and/or anti-IL-6 (R&D Systems, Abingdon, UK). All cultures were maintained at 37° C. in a humidified atmosphere with 5% CO2.
as §1

Nc1ncn([C@@H]2O[C@H](CO)[C@@H](O)[C@H]2O)c(=O)n1 [5-azacytidine]
critical illness enhanced osteoclast formation [1]: inhibiting effect

CO[C@H]1C[C@@H]2CC[C@@H](C)[C@@](O)(O2)C(=O)C(=O)N2CCCC[C@H]2C(=O)O[C@H]([C@H](C)C[C@@H]2CC[C@@H](OCCO)[C@H](OC)C2)CC(=O)[C@H](C)/C=C(\C)[C@@H](O)[C@@H](OC)C(=O)[C@H](C)C[C@H](C)/C=C/C=C/C=C/1C [Everolimus, 40-O-(2-hydroxyethyl)-rapamycin]
critical illness enhanced osteoclast formation [1]: inhibiting effect

CC(CN1c2ccccc2Sc2ccccc21)N(C)C (stereo not drawn) [Promethazine, 10-(2-dimethylaminopropyl)phenothiazine]
critical illness enhanced osteoclast formation [1]: inhibiting effect

NCCCCNCCCN [Spermidine]
p62 protein expression [2]: no effect | osteoclast activity (resorption) [3]: reduced | osteoclast activity (resorption) ([3]; listed as spermidine): inhibits | osteoclast resorption of hydroxyapatite layer ([3]; sick stimulated (RANKL/MCSF) PBMCs, increase vs healthy, spermidine 2×10^-8 M): reduced; also recorded: completely blocked | critical illness enhanced osteoclast formation [1]: inhibiting effect | TRAP positive multinuclear cells (osteoclast formation) ([4]; healthy PBMCs stimulated with RANKL and MCSF, day 14): did not, however, have a significant effect | spontaneous osteoclast formation ([4]; healthy unstimulated (no RANKL or MCSF) PBMCs): no effect | TRAP positive multinuclear cells (osteoclast formation) ([4]; sick (critically ill) PBMCs stimulated with RANKL and MCSF, day 14, vs control sick PBMCs): significant reduction; also recorded: completely blocked | spontaneous osteoclast formation ([4]; sick unstimulated (no RANKL or MCSF) PBMCs, increase vs healthy): completely knocked down
